Data taken from paper PMC8385062, “Deciphering ion transport and ATPase coupling in the intersubunit tunnel of KdpFABC” (Nature Communications, 2021).

Target: T1, KdpFABC (nucleotide / vanadate rows, site in KdpB) (Escherichia coli, UniProt P03960, D307N)
T1 construct: heterotetrameric complex, His-tagged KdpC, pBXC3H vector, produced in E. coli LB2003 (lacks endogenous K+ uptake systems), purified; Potassium-transporting ATPase KdpC subunit; Potassium-transporting ATPase KdpF subunit
Experiment: cryo-EM structure, […] Å
Assay type: binding
Conditions: 5 mM AMPPCP, 50 mM KCl; between N and P domains of KdpB, E1·ATP state

T1 sequence (P03960 whole entry D307N): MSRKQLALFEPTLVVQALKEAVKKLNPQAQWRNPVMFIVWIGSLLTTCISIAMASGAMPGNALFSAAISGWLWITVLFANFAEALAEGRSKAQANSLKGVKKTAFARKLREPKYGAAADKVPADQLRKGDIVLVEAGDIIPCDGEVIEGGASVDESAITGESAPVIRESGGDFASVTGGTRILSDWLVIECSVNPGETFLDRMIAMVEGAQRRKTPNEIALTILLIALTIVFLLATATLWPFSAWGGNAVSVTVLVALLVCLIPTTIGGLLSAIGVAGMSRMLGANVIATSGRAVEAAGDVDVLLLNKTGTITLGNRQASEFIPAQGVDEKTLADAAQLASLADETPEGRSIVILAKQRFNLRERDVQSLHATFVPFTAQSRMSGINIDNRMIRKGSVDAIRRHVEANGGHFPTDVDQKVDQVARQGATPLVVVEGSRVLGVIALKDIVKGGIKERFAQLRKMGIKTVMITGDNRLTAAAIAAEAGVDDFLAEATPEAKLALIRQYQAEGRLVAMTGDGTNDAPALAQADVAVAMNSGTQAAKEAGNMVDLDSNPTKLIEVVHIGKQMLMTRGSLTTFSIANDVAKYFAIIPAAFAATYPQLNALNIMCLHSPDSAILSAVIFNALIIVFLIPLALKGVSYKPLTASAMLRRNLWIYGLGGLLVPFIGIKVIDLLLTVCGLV
T1 sequence (P03959 whole entry partner): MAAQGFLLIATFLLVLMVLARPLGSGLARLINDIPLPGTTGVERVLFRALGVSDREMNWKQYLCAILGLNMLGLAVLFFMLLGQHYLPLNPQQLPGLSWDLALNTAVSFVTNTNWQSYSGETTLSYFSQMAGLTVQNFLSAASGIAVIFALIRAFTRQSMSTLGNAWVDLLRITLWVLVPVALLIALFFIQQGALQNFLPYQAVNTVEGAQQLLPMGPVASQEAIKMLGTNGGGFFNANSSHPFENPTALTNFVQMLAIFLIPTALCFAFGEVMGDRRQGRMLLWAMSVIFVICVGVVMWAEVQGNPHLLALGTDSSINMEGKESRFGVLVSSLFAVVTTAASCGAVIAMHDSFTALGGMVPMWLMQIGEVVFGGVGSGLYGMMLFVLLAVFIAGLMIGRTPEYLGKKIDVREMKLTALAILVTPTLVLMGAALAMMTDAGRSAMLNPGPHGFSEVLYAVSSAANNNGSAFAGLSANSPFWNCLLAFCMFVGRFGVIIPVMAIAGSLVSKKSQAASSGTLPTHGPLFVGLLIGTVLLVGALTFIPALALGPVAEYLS
T1 sequence (P03961 whole entry partner): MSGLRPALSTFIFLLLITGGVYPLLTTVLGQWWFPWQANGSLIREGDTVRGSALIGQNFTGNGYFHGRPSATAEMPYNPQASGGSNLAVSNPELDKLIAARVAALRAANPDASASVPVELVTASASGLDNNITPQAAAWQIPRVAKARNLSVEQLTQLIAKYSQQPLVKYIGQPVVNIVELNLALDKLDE
T1 sequence (P36937 whole entry partner): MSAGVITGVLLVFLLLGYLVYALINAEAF

## Nc1ncnc2c1ncn2[C@@H]1O[C@H](COP(=O)(O)OP(=O)(O)CP(=O)(O)O)[C@@H](O)[C@H]1O [AMPPCP]
  cryo-EM structure, 3.1 Å: The nucleotide AMPPCP is coordinated between the N and P domains
